According to US20250064993A1, “NOVEL BISPIDINE-BASED METAL CHELATING LIGANDS DISPLAYING GOOD RELAXIVITY” (UNIVERSITE DE STRASBOURG, priority 2021, published 2025):

What was measured:
[1] = Kinetic inertness: half-life by transmetallation of the Mn2+ complex with excess Zn2+, followed by water proton relaxation rates; assay type: physicochemical; conditions: 25 eq Zn^2+, pH = 6, 37° C.; read-out: Half-life in excess of Zn^2+ (t1/2) (converted)
Experimental: The excess of the exchanging metal ion guarantees the pseudo-first order conditions. For the duration of the experiments (up to 3 months), the samples were stored in a thermostat at 37° C. between the relaxivity measurements. The pH was controlled for each sample at the end of the kinetic measurements to confirm that it remained stable during the experiment. The reactions were monitored by measuring the water proton relaxation rates at 60 MHz on a relaxometer commercialized under the brand name Minispec by the firm a Bruker. The analysis of the experimental data was performed using Visualiseur/Optimiseur running on a MATLAB 8.3.0 (R2014a) platform according to equations (1) and (2): […]
were [MnL]t stands for the total concentration of MnL complex, Kobs stands for the pseudo-first order constant and t1/2 is the half-life of the MnL complex in the given conditions.

[2] = Longitudinal relaxivity r1 in water at 60 MHz (WP80 NMR, Bruker); assay type: physicochemical; conditions: at 25° C., pH = 7.4, and 60 MHz
Experimental: Equimolar quantities of ligand and MnCl2 were dissolved in milli-Q water, the pH was adjusted to 7.4 either with a buffered solution or by adding KOH or HCl to the solution and the samples were heated at 60° C. for 30 min. The absence of free Mn^2+ was checked by the Xylenol orange test.
The relaxivity at 60 MHz is measured with a device commercialized under the brand name WP80 NMR by the firm Brucker according to the following protocol. A millimolar aqueous solution of complex was prepared with Milli-Q water (p<18MΩ). The concentration of Mn^2+-containing samples was checked by ICP-OES and/or NMR by using the bulk magnetic susceptibility. The absence of free Mn^2+ was checked by the Xylenol orange test. For the relaxivity measurement, the temperature was monitored by a VTC91 temperature control unit and maintained by a gas flow. The temperature was determined by previous calibration with a Pt resistance temperature probe.

[3] = pH of 7.4, 60 MHz, 25° C.; cited from earlier work

## CN1[C@@H](c2ccccn2)C2(C(=O)O)CN([C@@H](CCCCNC(=O)CCOCCOCCO)C(=O)O)CC(C(=O)O)([C@H]2O)[C@H]1c1ccccn1 [(I-d)]
[1]
  half-life at 1 mM: 160 days
[2]; listed as (I-D)
  Longitudinal relaxivity in water (r1): 4.03 mM⁻¹ s⁻¹

## CNC[C@H](O)[C@@H](O)[C@H](O)[C@H](O)CO.O=C([O-])CN1CCN(CC(=O)[O-])CCN(CC(=O)O)CCN(CC(=O)[O-])CC1.[Gd+3] [Dotarem, gadoterate meglumine]
[3]
  relaxivity r1: 3.7 mM⁻¹ s⁻¹

## CN1[C@@H](c2ccccn2)C2(C(=O)O)CN([C@@H](CCCCNC(=O)CCOCCOCCO)C(=O)O)CC(C(=O)O)([C@H]2O)[C@H]1c1ccccn1 [(I-a)]
[2]; listed as (I-A)
  Longitudinal relaxivity in water (r1): 4.89 mM⁻¹ s⁻¹
